Test results: patent US9969709B2, “Guanidinobenzoic acid ester compound” (Takeda Pharmaceutical Company Limited, priority 2013, dated 2018)
Structures can show the parent of a compound that is named as a salt.

Experiments:
ICR mice = test: Test of increase in fecal protein concentration using mice; format: in vivo, mouse; settings: 5 mg/kg oral, male ICR mice, feces collected 3 to 9 hours after feeding started, control group = 1; for response vs control in vivo at 5 mg/kg: Mus musculus, po, 9 h, read-out: Fecal protein, Folds (vs. control)
Protocol: 2. Test of Increase in Fecal Protein Concentration Using Mice
For the experiment, 6-week old male ICR mice were used. The experiment was carried out in five mice per group. After fasting the mice for 15 hours, the control group was forcibly orally administered with a 0.5% methyl cellulose (MC) solution, and the test drug group was forcibly orally administered (5 mg/kg) with a solution or suspension obtained by dissolving or suspending the compound in the 0.5% MC solution. The fasting was stopped immediately thereafter, free feeding (CE-2) was started, and then the feces were collected from after 3 hours to after 9 hours, and weighed. All of the obtained feces were suspended in 6 mL of distilled water, and centrifuged at 1,940×g for 10 minutes. The protein concentration in the obtained supernatant was measured by a Bradford method, and the amount of the protein in 1 g of feces was calculated by dividing the protein concentration in the feces by the total weight of feces. Further, the efficacy was investigated from the ratio to the control group. For the compounds that were evaluated multiple times, the average values were calculated.
The results of the activities with an increase in Fecal Protein, assuming a value for the control group as 1, are shown in Table 2.

[1] = molecular target: T1, human recombinant trypsin (rh-trypsin) (Homo sapiens, UniProt P07477); test: Trypsin inhibitory activity, human recombinant trypsin, BZiPAR fluorescent substrate; format: biochemical; settings: 30 min at room temperature, read-out: r-h Trypsin inhibitory activity (IC50)
T1 construct: purchased Wako Pure Chemical Industries, Ltd. 206-17171
Protocol: (§1) 1. Confirmation of Trypsin Inhibitory Activity in Humans and Mice In the experiment, human recombinant trypsin (rh-trypsin; manufactured by Wako Pure Chemical Industries, Ltd.), cat. #206-17171) and mouse trypsin (m-trypsin; purified from the mouse small intestine contents by the present inventors) were used. The method for purifying m-trypsin from the contents of the mouse small intestine is shown below. The compound was dissolved in dimethyl sulfoxide (DMSO), and diluted to an arbitrary concentration (A). A was 100-fold diluted with a buffer (0.1 M Tris (pH 8.0), 0.15 M NaCl, 10 mM CaCl2, 0.05% Brij35) (B). The rh-trypsin was diluted with a buffer to 0.088 μg/mL, and for the m-trypsin, the purified fraction liquid was 50-fold diluted with the buffer (C). […] A BZiPAR solution (Rhodamine Reference Substrate) which is substrate for the trypsin enzyme was diluted with the buffer to […] (D). 5 μL of B, 5 μL of C, and 10 μL of D were added to a 384-well plate, and incubated at room temperature for 30 minutes. Fluorescent signals were detected at a maximum excitement (Ex)/fluorescent wavelength (Em)=497 nm/520 nm using a Tecan Safire Fluorometer. […] Based on the obtained inhibitory rates, the trypsin inhibitory activities (IC50 values, nM) were calculated from the non-linear regression.

[2] = system: T2, mouse trypsin (m-trypsin); test: Trypsin inhibitory activity, mouse trypsin purified from small intestine contents, BZiPAR fluorescent substrate; format: biochemical; settings: 30 min at room temperature
T2 construct: mouse trypsin (m-trypsin)
Text: 1. Confirmation of Trypsin Inhibitory Activity in Humans and Mice
In the experiment, human recombinant trypsin (rh-trypsin; manufactured by Wako Pure Chemical Industries, Ltd.), cat. #206-17171) and mouse trypsin (m-trypsin; purified from the mouse small intestine contents by the present inventors) were used. The method for purifying m-trypsin from the contents of the mouse small intestine is shown below.
The small intestine contents and the gastrointestinal tract obtained from 10 mice were homogenized in phosphate buffer saline (PBS) using Polytron, and subjected to centrifugation several times at 15,000×g for 10 minutes. The supernatant was mixed at 4° C. for 16 hours with a Benzamidine Sepharose 4 Fast Flow Resin (GE Healthcare: #17-5123-10). After washing the resin with PBS, m-trypsin was eluted with a glycine buffer (pH 3.0) to carry out purification. It was confirmed by Western blot analysis that the obtained purified fraction was recognized as an Anti-mouse Trypsin Antibody (Santa Cruz Biotechnology, Inc.: sc-67388). The method for measuring the trypsin inhibiting activity is shown below.
as §1, with “The” for “1. Confirmation of Trypsin Inhibitory Activity in Humans and Mice In the experiment, human recombinant trypsin (rh-trypsin; manufactured by Wako Pure Chemical Industries, Ltd.), cat. #206-17171) and mouse trypsin (m-trypsin; purified from the mouse small intestine contents by the present inventors) were used. The method for purifying m-trypsin from the contents of the mouse small intestine is shown below. The”

SMILES | response vs control in vivo at 5 mg/kg (ICR mice) [%] | IC50 [1] [pM] | IC50 [2] [pM] | Fecal protein, Folds (vs. control) (ICR mice)
N=C(N)Nc1ccc(C(=O)Oc2ccc3c(c2)CCC3CC(=O)N(CCC(=O)O)Cc2csc(C(=O)O)c2)cc1 (stereo not shown) [Example 50] | 156 | 280 | 430 | –
N=C(N)Nc1ccc(C(=O)Oc2ccc3c(C(=O)N(CC(=O)O)Cc4cccc(CC(=O)O)c4)cccc3c2)cc1 [Example 42] | 204 | 200 | 140 | –
N=C(N)Nc1ccc(C(=O)Oc2ccc3cc(C(=O)N[C@@H](Cc4ccc(C(=O)O)cc4)C(=O)O)ccc3c2)cc1 [Example 37] | 174 | 240 | 180 | –
N=C(N)Nc1ccc(C(=O)Oc2ccc3c(c2)CCCC3CC(=O)N(CC(=O)O)Cc2ccc(CC(=O)O)cc2)cc1 (stereo not shown) [Example 26] | 170 | 330 | 340 | –
N=C(N)Nc1ccc(C(=O)Oc2ccc3c(C(=O)N(CCC(=O)O)Cc4csc(C(=O)O)c4)csc3c2)cc1 [Example 54] | 170 | 290 | 460 | –
C[C@H](C(=O)O)N(Cc1csc(C(=O)O)c1)C(=O)C1CCc2cc(OC(=O)c3ccc(NC(=N)N)cc3)ccc2C1 (stereo partly shown) [Example 21] | 251 | 380 | 520 | –
N=C(N)Nc1ccc(C(=O)Oc2ccc3cc(C(=O)N(CC(=O)O)Cc4ccc(CC(=O)O)cc4)ccc3c2)cc1 [Example 16] | 239 | 140 | 240 | –
N=C(N)Nc1ccc(C(=O)Oc2ccc3c(C(=O)N(CC(=O)O)Cc4ccc5sc(C(=O)O)cc5c4)cccc3c2)cc1 [Example 34] | 207 | 210 | 170 | –
N=C(N)Nc1ccc(C(=O)Oc2ccc3c(C(=O)N(CC(=O)O)Cc4cccc(C(=O)O)c4)cccc3c2)cc1 [Example 15] | 261 | 100 | 180 | –
N=C(N)Nc1ccc(C(=O)Oc2ccc3c(C(=O)N(CC(=O)O)Cc4ccc(CC(=O)O)cc4)csc3c2)cc1 [Example 23] | 253 | 460 | 460 | –
C[C@H](C(=O)O)N(Cc1csc(C(=O)O)c1)C(=O)c1cccc2cc(OC(=O)c3ccc(NC(=N)N)cc3)ccc12 [Example 18] | 218 | 290 | 480 | –
N=C(N)Nc1ccc(C(=O)Oc2ccc3c(c2)CCCC3CC(=O)N2Cc3cc(C(=O)O)ccc3C[C@@H]2C(=O)O)cc1 (stereo partly shown) [Example 30] | 168 | 250 | 280 | –
N=C(N)Nc1ccc(C(=O)Oc2ccc3c(c2)CCC3CC(=O)N(CC(=O)O)Cc2ccc(CC(=O)O)cc2)cc1 (stereo not shown) [Example 52] | 178 | 430 | 550 | –
N=C(N)Nc1ccc(C(=O)Oc2ccc3c(c2)CCCC3CC(=O)N(Cc2ccccc2)CC(CC(=O)O)CC(=O)O)cc1 (stereo not shown) [Example 44] | 172 | 200 | 200 | –
N=C(N)Nc1ccc(C(=O)Oc2ccc3c(c2)CCC3CC(=O)N(CC(=O)O)[C@@H](Cc2ccccc2)C(=O)O)cc1 (stereo partly shown) [Example 46] | 184 | 250 | 230 | –
C[C@H](C(=O)O)N(Cc1csc(C(=O)O)c1)C(=O)CC1CCc2cc(OC(=O)c3ccc(NC(=N)N)cc3)ccc21 (stereo partly shown) [Example 48] | 179 | 360 | 440 | –
C[C@H](C(=O)O)N(Cc1csc(C(=O)O)c1)C(=O)c1csc2cc(OC(=O)c3ccc(NC(=N)N)cc3)ccc12 [Example 29] | 143 | 260 | 230 | –
N=C(N)Nc1ccc(C(=O)Oc2ccc3c(c2)CCC(C(=O)N(CC(=O)O)Cc2ccc(CC(=O)O)cc2)C3)cc1 (stereo not shown) [Example 20] | 223 | 470 | 770 | –
N=C(N)Nc1ccc(C(=O)Oc2ccc3c(c2)CCC(C(=O)N(CC(=O)O)Cc2csc(C(=O)O)c2)C3)cc1 (stereo not shown) [Example 4, 4-{[({6-[(4-carbamimidamidobenzoyl)oxy]-1,2,3,4-tetrahydronaphthalen-2-yl}carbonyl)(carboxymethyl)amino]methyl}thiophene-2-carboxylic acid monohydrochloride] | 262 | 430 | 610 | –
N=C(N)Nc1ccc(C(=O)Oc2ccc3c(c2)CCCC3CC(=O)N(CCC(=O)O)Cc2csc(C(=O)O)c2)cc1 (stereo not shown) [Example 55] | 230 | 350 | 470 | –
N=C(N)Nc1ccc(C(=O)Oc2ccc3c(c2)CCCC3CC(=O)N(CCc2ccc(C(=O)O)cc2)CC(=O)O)cc1 (stereo not shown) [Example 28] | 154 | 380 | 400 | –
Cl.N=C(N)Nc1ccc(C(=O)Oc2ccc3c(c2)CCCC3CC(=O)N(CC(=O)O)Cc2cccc(C(=O)O)c2)cc1 (single isomer, unassigned) [Example 6, 3-{[({(1R)-6-[(4-carbamimidamidobenzoyl)oxy]-1,2,3,4-tetrahydronaphthalen-1-yl}acetyl)(carboxymethyl)amino]methyl}benzoic acid or an enantiomer thereof] | – | 290 | 200 | 1.84
N=C(N)Nc1ccc(C(=O)Oc2ccc3c(c2)CCCC3CC(=O)N(CC(=O)O)Cc2cccc(CC(=O)O)c2)cc1 (stereo not shown) [Example 41] | 201 | 260 | 220 | –
N=C(N)Nc1ccc(C(=O)Oc2ccc3c(C(=O)N(CC(=O)O)Cc4cccc(C(=O)O)c4)csc3c2)cc1 [Example 60] | 226 | 330 | 310 | –
C[C@H](C(=O)O)N(Cc1csc(C(=O)O)c1)C(=O)CC1CCCc2cc(OC(=O)c3ccc(NC(=N)N)cc3)ccc21 (single isomer, unassigned) [Example 8, 4-({({(1R)-6-[(4-carbamimidamidobenzoyl)oxy]-1,2,3,4-tetrahydronaphthalen-1-yl}acetyl) [(1R)-1-carboxyethyl]amino}methyl)thiophene-2-carboxylic acid or an epimer at position 1 of the 1,2,3,4-tetrahydronaphthalene] | – | 430 | 570 | 1.90
N=C(N)Nc1ccc(C(=O)Oc2ccc3c(c2)CCC3CC(=O)N[C@@H](Cc2ccc(C(=O)O)cc2)C(=O)O)cc1 (stereo partly shown) [Example 53] | 164 | 540 | 600 | –
N=C(N)Nc1ccc(C(=O)Oc2ccc3c(c2)OCC3CC(=O)N(CC(=O)O)Cc2cccc(C(=O)O)c2)cc1 (stereo not shown) [Example 10] | – | 1200 | 1400 | –
N=C(N)Nc1ccc(C(=O)Oc2ccc3c(CC(=O)N(CC(=O)O)Cc4cccc(C(=O)O)c4)coc3c2)cc1 [Example 12] | – | 1500 | 1700 | –
